Results taken from patent US20260193296A1 (priority 2023, published 2026).
Where two headings read alike, the source gives them in different places. Ends that are not written are not given here.

Assays:
CLas cells = type: cell-based, Candidatus Liberibacter asiaticus (CLas); details: for lysis of Huanglongbing pathogens: summary statement, demonstrated by experiments
[1] = test system: Huanglongbing pathogen CLas; type: cell-based, Candidatus Liberibacter asiaticus (CLas); details: for CLas titer in infected leaf midribs: 1 μM artificially synthesized peptide; for number of pathogens in citrus infected with Huanglongbing: summary statement, demonstrated by experiments
[2] = test system: Huanglongbing pathogen CLas; details: for IC50: read-out: CLas half inhibitory concentration (IC50), treated for 48 hours, FIG. 4C
[3] = test system: Huanglongbing pathogen CLas; type: in vivo, Candidatus Liberibacter asiaticus (CLas)
Huanglongbing pathogens = type: in vivo, citrus (Chunmi orange); details: field, whole plant, same injection method, two months after treatment; FIG. 6
[4] = test system: Huanglongbing pathogen CLas; type: cell-based, Candidatus Liberibacter asiaticus (CLas); details: for inhibitory effect on CLas after heat pretreatment: used at 1 μM, 48 h, compared with BSA, FIG. 4D

Row | Sequence | lysis of Huanglongbing pathogens (CLas cells) | CLas titer in infected leaf midribs ([1]; 48 h, FIG. 4A) | number of pathogens in citrus infected with Huanglongbing [1] | further results
1 | DPMIWGYVMLNDRLSK [AMP9-16, truncated peptide of AMP9] | promote lysis of Huanglongbing pathogens | significantly reduce the CLas titer | reduce the number of pathogens | –
2 | MKKVKNIFHKIANADPMIWGYVML [AMP3-24, truncated peptide of AMP3] | promote lysis of Huanglongbing pathogens | – | reduce the number of pathogens | –
3 | DPMIWGYVMLSESKDPMIWGYVMLNDSK [AMP-2β, dimer of β-sheet fragments obtained by prokaryotic expression and purification] | promote lysis of Huanglongbing pathogens | – | reduce the number of pathogens | –
4 | DPMIWGYVMLNDSK [AMP-β, variant containing conserved β-sheet region; synthesized and also made by prokaryotic expression] | promote lysis of Huanglongbing pathogens | significantly reduce the CLas titer | reduce the number of pathogens | –
5 | MKKVKNIFHKIANADPMIWGYVMLNDRLSK [AMP9] | promote lysis of Huanglongbing pathogens | significantly reduce the CLas titer | reduce the number of pathogens | –
6 | DPMIWGYVMLSESK [AMP3-14, DPMIWGYVMLSESK] | promote lysis of Huanglongbing pathogens | significantly reduce the CLas titer | reduce the number of pathogens | effectiveness in reducing the CLas titer compared with AMP3 ([2]; from IC50 values at 48 hours): more effective in reducing the CLas titer; IC50 [2]: 1 µM; symptoms of yellowing in leaves of infected plants ([3]; 1 μM solution, continuous trunk infusion, 6 months, FIG. 5B): disappeared; Ct value of CLas in infected plants ([3]; 1 μM solution, continuous trunk infusion, 6 months, FIG. 5C): not significantly different from that of healthy plants; Ct value of CLas in treated plants after removal of treatment ([3]; treatment removed after 7 months, titer monitored continuously): still not significantly different from that of healthy plants; growth of new citrus leaves (Huanglongbing pathogens): significantly promote the growth of new citrus leaves; thermal stability ([4]; 35° C. and 45° C. for 20 hours): good thermal stability; inhibitory effect on CLas after heat pretreatment ([4]; pretreated at 35° C. for 20 hours): still significant; inhibitory effect on CLas after heat pretreatment ([4]; pretreated at 45° C. for 20 hours): still significant; destruction of pathogenic cells compared with AMP3 (transmission electron microscope) (CLas cells; 1 μM, 24 hours, FIG. 7): better effect on the destruction of pathogenic cells; CLas titer in infected leaf veins ([1]; 100 nM artificially synthesized peptide, 48 h, FIG. 4A): significantly reduce the CLas titer
7 | MKKVKNIFHKIANA [AMP-α, contains only an α-helix fragment] | – | not able to change the CLas titer | – | –
8 | MKKVKNIFHKIANADPMIWGYVMLSESK [AMP3] | promote lysis of Huanglongbing pathogens | significantly reduce the CLas titer | reduce the number of pathogens | IC50 [2]: 52.1 µM
